Ki data for 17 compounds are collected here from paper PMC9154761, “Development of Praziquantel sulphonamide derivatives as antischistosomal drugs” (Journal of Enzyme Inhibition and Medicinal Chemistry, 2022).

Where two headings read alike, the source gives them in different places. A value given as a limit tells only on which side of the number the result lay.

One assay deals with T1, hCA IV (Homo sapiens, UniProt P22748).
T1 construct: made in house
Kind of assay: stopped flow CO2 hydrase assay, hCA IV. In kind it is biochemical. The conditions noted are these: mean from three different assays. The procedure:
(§1) An Applied Photophysics stopped-flow instrument was used to assay the CA catalysed CO2 hydration activity. […] The CO2 concentrations ranged from 1.7 to 17 mM for the determination of the kinetic parameters and inhibition constants. […] For each inhibitor, at least six traces of the initial 5–10% of the reaction were used to determine the initial velocity. The uncatalyzed rates were determined in the same manner and subtracted from the total observed rates. Stock solutions of the inhibitor (0.1 mM) were prepared in distilled–deionized water and dilutions up to 0.01 nM were done thereafter with the assay buffer. Inhibitor and enzyme solutions were preincubated together for 15 min at room temperature prior to the assay, to allow for the formation of the E–I complex. The inhibition constants were obtained by non-linear least-squares methods using PRISM 3 and the Cheng-Prusoff equation as reported earlier and represent the mean from at least three different determinations. All CA isoforms were recombinant proteins obtained in house, as reported earlier[14]^,[26–29].

For the next assay, the target named is TcCA (Trypanosoma cruzi, UniProt Q4DKE0). In kind it is biochemical. As to conditions: stopped flow CO2 hydrase assay; mean from three different assays. The procedure:
(§2) An Applied Photophysics stopped-flow instrument was used to assay the CA catalysed CO2 hydration activity. […] The uncatalyzed rates were determined in the same manner and subtracted from the total observed rates. Stock solutions of the inhibitor (0.1 mM) were prepared in distilled–deionized water and dilutions up to 0.01 nM were done thereafter with the assay buffer. Inhibitor and enzyme solutions were preincubated together for 15 min at room temperature prior to the assay, to allow for the formation of the E–I complex. The inhibition constants were obtained by non-linear least-squares methods using PRISM 3 and the Cheng-Prusoff equation as reported earlier and represent the mean from at least three different determinations. All CA isoforms were recombinant proteins obtained in house, as reported earlier[14]^,[26–29].

A further assay has as its target LdCA (Leishmania donovani, UniProt A0A3S5H5R2). Put plainly: biochemical. The protocol:
as §2

The target in another assay is SmCA (Schistosoma mansoni, UniProt A0A3Q0KSG2). Put plainly: biochemical. The procedure: as §2
SmCA, sequence (A0A3Q0KSG2 entry or part of it): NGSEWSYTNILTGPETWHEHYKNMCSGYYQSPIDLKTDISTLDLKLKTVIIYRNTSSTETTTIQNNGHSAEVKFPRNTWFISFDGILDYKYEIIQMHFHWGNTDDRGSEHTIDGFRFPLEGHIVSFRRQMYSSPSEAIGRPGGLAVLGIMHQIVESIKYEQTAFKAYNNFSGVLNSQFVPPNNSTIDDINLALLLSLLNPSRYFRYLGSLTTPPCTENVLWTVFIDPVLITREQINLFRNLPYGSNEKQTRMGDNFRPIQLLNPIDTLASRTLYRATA
The target in a further assay is T2, hCA IX (Homo sapiens, UniProt Q16790).
T2 construct: made in house
Kind of assay: stopped flow CO2 hydrase assay, hCA IX. In kind it is biochemical. As to conditions: mean from three different assays. The protocol: as §1

The target of another assay is T3, hCA II (Homo sapiens, UniProt P00918).
T3 construct: made in house
Kind of assay: stopped flow CO2 hydrase assay, hCA II. As to conditions: mean from three different assays, read-out: Ki hCAII. In kind it is biochemical. The protocol:
as §1

The target in a further assay is T4, hCA I (Homo sapiens, UniProt P00915).
T4 construct: made in house
T4 sequence (P00915 whole entry): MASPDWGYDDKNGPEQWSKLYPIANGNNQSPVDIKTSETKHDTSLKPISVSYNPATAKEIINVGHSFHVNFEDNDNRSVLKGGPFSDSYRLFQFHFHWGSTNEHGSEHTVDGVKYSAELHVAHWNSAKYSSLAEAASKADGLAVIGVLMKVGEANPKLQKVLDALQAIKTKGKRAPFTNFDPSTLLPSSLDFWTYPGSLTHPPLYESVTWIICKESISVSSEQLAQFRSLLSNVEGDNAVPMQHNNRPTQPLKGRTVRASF
Put plainly: stopped flow CO2 hydrase assay, hCA I. The conditions noted are these: mean from three different assays. In kind it is biochemical. The protocol: as §1

Where [1] appears, read: stopped flow CO2 hydrase assay, mean from three different assays, read-out: Ki LdCA.
[2] abbreviates: stopped flow CO2 hydrase assay, mean from three different assays, read-out: Ki SmCA.

TcCA, sequence (Q4DKE0 entry or part of it): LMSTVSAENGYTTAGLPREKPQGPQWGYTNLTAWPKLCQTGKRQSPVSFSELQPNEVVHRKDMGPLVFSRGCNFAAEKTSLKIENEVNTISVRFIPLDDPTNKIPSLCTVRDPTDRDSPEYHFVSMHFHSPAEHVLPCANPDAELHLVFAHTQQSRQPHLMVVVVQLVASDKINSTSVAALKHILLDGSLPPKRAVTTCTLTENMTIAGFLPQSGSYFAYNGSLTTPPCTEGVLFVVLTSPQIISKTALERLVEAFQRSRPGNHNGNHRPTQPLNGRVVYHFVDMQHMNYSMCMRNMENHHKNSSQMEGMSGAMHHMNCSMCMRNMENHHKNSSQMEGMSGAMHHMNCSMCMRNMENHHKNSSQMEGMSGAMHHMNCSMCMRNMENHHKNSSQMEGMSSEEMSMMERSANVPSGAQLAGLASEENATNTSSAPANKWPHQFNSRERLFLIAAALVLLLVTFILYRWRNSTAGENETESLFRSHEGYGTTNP
T1 sequence (P22748 19-312): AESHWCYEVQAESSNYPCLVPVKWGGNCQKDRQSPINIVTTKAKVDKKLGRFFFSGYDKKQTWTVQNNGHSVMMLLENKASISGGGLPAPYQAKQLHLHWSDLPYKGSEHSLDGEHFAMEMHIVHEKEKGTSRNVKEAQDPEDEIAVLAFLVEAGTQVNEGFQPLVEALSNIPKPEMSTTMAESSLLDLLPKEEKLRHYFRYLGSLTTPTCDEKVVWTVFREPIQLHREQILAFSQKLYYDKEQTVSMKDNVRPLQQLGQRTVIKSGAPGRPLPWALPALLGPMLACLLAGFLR
LdCA, sequence (A0A3S5H5R2 entry or part of it): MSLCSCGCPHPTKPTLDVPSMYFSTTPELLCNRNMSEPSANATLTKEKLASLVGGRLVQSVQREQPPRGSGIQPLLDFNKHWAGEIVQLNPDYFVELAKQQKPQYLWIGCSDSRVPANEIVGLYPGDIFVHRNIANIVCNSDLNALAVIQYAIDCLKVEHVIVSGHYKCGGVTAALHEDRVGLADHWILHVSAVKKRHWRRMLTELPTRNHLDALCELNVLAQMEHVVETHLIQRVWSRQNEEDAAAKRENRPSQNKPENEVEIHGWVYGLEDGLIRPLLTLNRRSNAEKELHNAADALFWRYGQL

As for “3–(3-(4–(4-Oxo-1,3,4,6,7,11b-hexahydro-2H-pyrazino[2,1-a]isoquinoline-2-carbonyl) phenyl)ureido)benzenesulfonamide [Compound 31d]”, the Ki (commonly a measure of affinity in units of concentration, obtained from inhibition or displacement) on hCA IV was 320 ± 32.7 nM; on TcCA, 393 ± 24.7 nM; at LdCA (setting [1]), 82.8 ± 5.5 nM; on SmCA (setting [2]) it was 764 ± 68.3 nM; at hCA IX it was 138 ± 7.8 nM.

Take `NS(=O)(=O)c1ccc(C(=O)Nc2nc(CC(=O)N3CC(=O)N4CCc5ccccc5C4C3)cs2)cc1` (centres unmarked) [Compound 30, N-(4–(2-oxo-2–(4-oxo-1,3,4,6,7,11b-hexahydro-2H-pyrazino[2,1-a]isoquinolin-2-yl)ethyl)thiazol-2-yl)-4-sulfamoylbenzamide]: the Ki stood at 422 ± 26.6 nM at hCA IV; 8.5 ± 0.5 nM at hCA II; 81.3 ± 6.4 nM at LdCA (setting [1]); 7.8 ± 0.6 nM at SmCA (setting [2]); 58.6 ± 6.2 nM on hCA I; 119 ± 12.4 nM on hCA IX.

“4–(3-(3–(4-Oxo-1,3,4,6,7,11b-hexahydro-2H-pyrazino[2,1-a]isoquinoline-2-carbonyl) phenyl)ureido)benzenesulfonamide [Compound 31a]”: the Ki on hCA IV was found to be 180 ± 19.5 nM; on TcCA, 1650 ± 129 nM; at LdCA (setting [1]), 248 ± 15.9 nM; at SmCA (setting [2]), 8.8 ± 0.8 nM; on hCA IX, 280 ± 15.4 nM.

In the case of `NS(=O)(=O)c1cccc(NC(=O)NCc2ccc(C(=O)N3CC(=O)N4CCc5ccccc5C4C3)cc2)c1` (centres unmarked) [Compound 28b, 3–(3-(4–(4-Oxo-1,3,4,6,7,11b-hexahydro-2H-pyrazino[2,1-a]isoquinoline-2-carbonyl)benzyl)ureido)benzenesulfonamide], the inhibitory constant (Ki) at hCA IV worked out at 851 ± 56.2 nM; at hCA II it was 14.9 ± 1.5 nM; on LdCA (setting [1]) it was 300 ± 30.5 nM; on SmCA (setting [2]), 824 ± 66.8 nM; at hCA I, 96.5 ± 6.5 nM; at hCA IX, 29.9 ± 1.6 nM.

Turning to `NS(=O)(=O)c1ccc(NC(=S)N2CC(=O)N3CCc4ccccc4C3C2)cc1` (centres unmarked) [Compound 35a, 4-Oxo-N-(4-sulfamoylphenyl)-1,3,4,6,7,11b-hexahydro-2H-pyrazino[2,1-a]isoquinoline-2-carbothioamide], the Ki on hCA IV was 7110 ± 404 nM; at hCA II, 53.9 ± 4.4 nM; at LdCA (setting [1]), 323 ± 22.2 nM; at SmCA (setting [2]) it was 79.4 ± 4.2 nM; on hCA I it was 303 ± 24.1 nM; at hCA IX, 82.2 ± 8.6 nM.

Consider `NS(=O)(=O)c1ccc(NC(=O)NCc2ccc(C(=O)Nc3nc(CC(=O)N4CC(=O)N5CCc6ccccc6C5C4)cs3)cc2)cc1` (centres unmarked) [Compound 29a, N-(4–(2-oxo-2–(4-oxo-1,3,4,6,7,11b-hexahydro-2H-pyrazino[2,1-a]isoquinolin-2-yl)ethyl)thiazol-2-yl)-4-((3–(4-sulfamoylphenyl)ureido)methyl)benzamide], for which the Ki at hCA IV was 541 ± 30.3 nM; at hCA II it was 49.6 ± 3.2 nM; at LdCA (setting [1]), 85.5 ± 6.77 nM; on SmCA (setting [2]), 1640 ± 97 nM; on hCA I, 314 ± 30.5 nM; at hCA IX it was 31.9 ± 1.9 nM.

Regarding “4–(3-(4–(4-Oxo-1,3,4,6,7,11b-hexahydro-2H-pyrazino[2,1-a]isoquinoline-2-carbonyl) phenyl)ureido)benzenesulfonamide [Compound 31c]”, the Ki at hCA IV is 8700 ± 559 nM; at TcCA, 589 ± 37 nM; on LdCA (setting [1]), 401 ± 20.7 nM; on SmCA (setting [2]), 62.8 ± 4 nM; at hCA IX it was 31.1 ± 2.9 nM.

`O=C(C1CCCCC1)N1CC(=O)N2CCc3ccccc3C2C1` (centres unmarked) [PZQ, Praziquantel]: the Ki at hCA IV, on hCA II, on LdCA (setting [1]), on SmCA (setting [2]), at hCA I and on hCA IX was above 10000 nM in each case.

As for `NS(=O)(=O)c1cccc(NC(=O)NCc2ccc(C(=O)Nc3nc(CC(=O)N4CC(=O)N5CCc6ccccc6C5C4)cs3)cc2)c1` (centres unmarked) [Compound 29b, N-(4–(2-oxo-2–(4-oxo-1,3,4,6,7,11b-hexahydro-2H-pyrazino[2,1-a]isoquinolin-2-yl)ethyl)thiazol-2-yl)-4-((3–(3-sulfamoylphenyl)ureido)methyl)benzamide], the inhibition constant (Ki) on hCA IV amounted to 789 ± 66.2 nM; at hCA II, 7.1 ± 0.6 nM; on LdCA (setting [1]), 218 ± 17.9 nM; at SmCA (setting [2]) it was 901 ± 77.6 nM; on hCA I, 506 ± 27.9 nM; on hCA IX, 199 ± 17.6 nM.

As to `NS(=O)(=O)c1cccc(NC(=O)N2CC(=O)N3CCc4ccccc4C3C2)c1` (centres unmarked) [Compound 34b, 4-Oxo-N-(3-sulfamoylphenyl)-1,3,4,6,7,11b-hexahydro-2H-pyrazino[2,1-a]isoquinoline-2-carboxamide], the inhibitory constant (Ki) on hCA IV was found to be 517 ± 52.4 nM; at hCA II it was 45.6 ± 3 nM; on LdCA (setting [1]) it was 347 ± 34.3 nM; at SmCA (setting [2]), 7200 ± 661 nM; on hCA I it was 409 ± 23.3 nM; on hCA IX it was 91.9 ± 8.8 nM.

Turning to `NS(=O)(=O)c1ccc(CNC(=O)Nc2ccc(C(=O)N3CC(=O)N4CCc5ccccc5C4C3)cc2)cc1` (centres unmarked) [Compound 32, 4-((3–(4-(4-Oxo-1,3,4,6,7,11b-hexahydro-2H-pyrazino[2,1-a]isoquinoline-2-carbonyl)phenyl)ureido)methyl)benzenesulfonamide], the inhibitory constant (Ki) at hCA IV amounted to 665 ± 47.3 nM; at hCA II, 26.5 ± 2.4 nM; on LdCA (setting [1]) it was 401 ± 34.8 nM; at SmCA (setting [2]), 6350 ± 472 nM; at hCA I, 80.7 ± 4.8 nM; on hCA IX, 112 ± 11.3 nM.

As to “3–(3-(3–(4-Oxo-1,3,4,6,7,11b-hexahydro-2H-pyrazino[2,1-a]isoquinoline-2-carbonyl) phenyl)ureido)benzenesulfonamide [Compound 31b]”, the Ki was determined as 451 ± 24.3 nM at hCA IV; 309 ± 33.4 nM at TcCA; 323 ± 16.7 nM on LdCA (setting [1]); 2490 ± 144 nM on SmCA (setting [2]); 31.2 ± 1.6 nM on hCA IX.

Turning to `NS(=O)(=O)c1ccc(NC(=S)Nc2ccc([Se]Cc3ccc(C(=O)N4CC(=O)N5CCc6ccccc6C5C4)cc3)cc2)cc1` (centres unmarked) [Compound 9, 4–(3-(4-((4–(4-oxo-1,3,4,6,7,11b-hexahydro-2H-pyrazino[2,1-a]isoquinoline-2-carbonyl)benzyl)selanyl)phenyl)thioureido)benzenesulfonamide], the Ki at hCA IV is 966 ± 82.8 nM; at hCA II, 131 ± 14 nM; at LdCA, 276 ± 22.4 nM; at SmCA it was 771 ± 40.1 nM; at hCA I, 486 ± 24.9 nM; on hCA IX, 174 ± 17.2 nM.

Turning to `NS(=O)(=O)c1ccc(CCNC(=S)N2CC(=O)N3CCc4ccccc4C3C2)cc1` (centres unmarked) [Compound 35c, 4-Oxo-N-(4-sulfamoylphenethyl)-1,3,4,6,7,11b-hexahydro-2H-pyrazino[2,1-a]isoquinoline-2-carbothioamide], the inhibitory constant (Ki) at hCA IV turned out to be 8270 ± 719 nM; at hCA II, 7.6 ± 0.4 nM; at LdCA (setting [1]) it was 485 ± 46 nM; at SmCA (setting [2]) it was 5 ± 0.5 nM; on hCA I, 64 ± 5.4 nM; at hCA IX, 97.1 ± 7.9 nM.

Take `NS(=O)(=O)c1ccc(C(=O)N2CC(=O)N3CCc4ccccc4C3C2)cc1` (centres unmarked) [Compound 4a, 4–(4-Oxo-1,3,4,6,7,11b-hexahydro-2H-pyrazino[2,1-a]isoquinoline-2-carbonyl) benzenesulfonamide]: the inhibition constant (Ki) amounted to 8860 ± 617 nM at hCA IV; 44.6 ± 3.4 nM at hCA II; 371 ± 26.9 nM on LdCA (setting [1]); 1890 ± 195 nM at SmCA (setting [2]); 93.8 ± 8.8 nM on hCA I; 30.3 ± 3 nM on hCA IX.

Turning to `NS(=O)(=O)c1cccc(NC(=S)N2CC(=O)N3CCc4ccccc4C3C2)c1` (centres unmarked) [Compound 35b, 4-Oxo-N-(3-sulfamoylphenyl)-1,3,4,6,7,11b-hexahydro-2H-pyrazino[2,1-a]isoquinoline-2-carbothioamide], the inhibition constant Ki at hCA IV was 47.9 ± 4.1 nM; on hCA II, 8 ± 0.8 nM; on LdCA (setting [1]), 237 ± 12.5 nM; at SmCA (setting [2]), 6150 ± 612 nM; at hCA I it was 86.5 ± 9 nM; on hCA IX it was 83.3 ± 7.3 nM.

For `NS(=O)(=O)c1ccc(CCNC(=O)Nc2ccc(C(=O)N3CC(=O)N4CCc5ccccc5C4C3)cn2)cc1` (centres unmarked) [Compound 33, 4–(2-(3–(5-(4-Oxo-1,3,4,6,7,11b-hexahydro-2H-pyrazino[2,1-a]isoquinoline-2-carbonyl)pyridin-2-yl)ureido)ethyl)benzenesulfonamide], the Ki on hCA IV was 6810 ± 379 nM; at hCA II, 49.2 ± 3.5 nM; on LdCA (setting [1]) it was 87.5 ± 4.9 nM; on SmCA (setting [2]), 581 ± 32.5 nM; on hCA I, 128 ± 11.9 nM; at hCA IX, 90.9 ± 9.6 nM.
